Results published in patent US20050009057A1, “Assay for detecting the presence of processing inhibitory antibodies against the Apical Membrane Antigen-1 of Plasmodium falciparum in biological samples” (priority 2003, published 2005).
Read-outs that look alike come from different tables or passages of the source.

Tests used:
P. falciparum schizonts = assay: Giemsa stained thin smears after rupture cycle (schizont maturation, PCM); type: cell-based, Plasmodium falciparum; conditions: for schizont maturation / development on giemsa stained thin smears / Protease inhibitor Clusters of Merozoites (PCM) on giemsa stained slides: inhibitor concentrations as in FIG. 6A
Method: (§1) Protease inhibitors. Protease inhibitors were tested for their effect on AMA-1 processing. All inhibitors were from Sigma Chemicals. PMSF, pepstatin and TPCK were dissolved in 100% ethanol. Antipain, leupeptin, and 1,10-phenanthroline stocks were made in water. EDTA and EGTA stocks were made in PBS (pH adjusted to 7.2), TLCK was prepared in 1 mM HCl, E64 and chymostatin were prepared in DMSO. All stocks were at 100× concentration. 1.5 μl of the protease inhibitor or its respective solvent control was added to 15 μl PBS and then 135 μl of (1×10^7/ml) Percoll purified mid-stage schizonts were added. The processing assay was carried out as described above. Parallel assay with protease inhibitors was carried out in two similarly prepared plates to which RBC were also added to a final 4% hematocrit. Parasites in the first plate were allowed to invade in suspension at 37° C. and thin smears were prepared after the rupture cycle for giemsa staining and examination for the presence of Protease inhibitor Clusters of Merozoites (PCM) (Lyon and Haynes, 1986, J. Immunol. 136, 2245-2251). In the second plate parasites (135 μl of 5×10^6/ml schizonts+RBC at 4% hematocrit) were incubated overnight and ring forms were quantitated by flow cytometry as a measure of parasite invasion (Haynes et al., 2002, supra).

[1] = test system: P. falciparum merozoite invasion of RBC; assay: microbe, parasite or virus in culture; type: cell-based, Plasmodium falciparum; conditions: for inhibition of RBC invasion: 1 mM
Method: as §1

[2] = test system: PfAMA-1 processing on merozoites; assay: AMA-1 processing assay / processing inhibition assay (PIA), western blot; type: cell-based, P. falciparum clone 3D7; conditions: for accumulation of PfAMA-1 66: FIG. 6A, 6B; for formation of trapped PfAMA-1 52 and PfAMA-1 48+44: with trapping antibodies (1:2500 anti-AMA-1 sera pool)
Method: AMA-1 processing assay, or processing inhibition assay (PIA). P. falciparum clone 3D7 cultures were prepared as described previously (Haynes and Moch, 2002, Methods Mol. Med. 72, 489-497), culture media included 10% heat inactivated normal human serum in bicarbonate-containing RPMI 1640 containing final 0.42 mM Ca^+2 and 0.40 mM Mg^+2. Fifteen microliters of heat inactivated rabbit serum (dialyzed against RPMI 1640 or used directly after heat inactivation) or purified IgG or Fab fragments was mixed with 135 μl of synchronized (Haynes and Moch, 2002, supra), Percoll-alanine purified (Kanaani and Ginsburg, 1989, J. Biol. Chem. 264, 3194-3199), mid-stage (˜8 nuclei), >90% pure schizonts (1×10^7 per ml) in a 48 well culture plate. PBS was used as a diluent if necessary. The plate was placed in a plastic bag, gassed with 5% O2-5% CO2, heatsealed, and incubated at 37° C. for ˜6 h (Haynes et al., 2002, Methods Mol. Med. 72, 535-554). Aliquots from a control culture flask were taken to monitor the percent rupture of schizonts by hemocytometer. After ˜90% schizonts had ruptured, the contents of each well were transferred to a microfuge tube and centrifuged at 10,000× g for 5 min. The supernatant was aspirated and the resulting parasite pellet was washed with 0.5 ml chilled PBS and centrifuged as before. The supernatant was discarded and 150 μl of 1× NuPAGE sample buffer (Invitrogen) was added to the tubes, samples were frozen at −30° C. until analyzed. Soluble forms of AMA-1 were immuno-precipitated from the processing assay culture supernatants or from culture supernatant of routinely maintained parasites using MagnaBind Goat anti-Rabbit IgG coated Magnetic Beads (Pierce). Two types of western blots have been used to detect AMA-1 fragments. First set of westerns in FIGS. 1 to 6 have been developed using biotinylated polyclonal IgG against recombinant AMA-1. A second set of western blots, FIG. 6 onwards, has been developed using two biotinylated primary antibodies, mAb 28G2dc1 (1:1000) and polyclonal anti-AMA-1 IgG (1:1000) used simultaneously in order to immunostain all the AMA-1 specific fragments on the blot.
as §1
PAGE and Western blotting. Samples were briefly sonicated with a microtip sonicator, heated at 80° C. for 2 min, spun down and 16 μl was applied per well to a precast 4-12% gradient polyacrylamide gel (NuPAGE Bis-Tris; Invitrogen). Samples were run under non-reduced conditions unless specified. DTT at 50 mM was added to samples resolved under reduced conditions. Proteins from the gel were electrophoretically transferred to nitrocellulose membrane and blocked with 5% BSA in PBS containing 0.05% Tween-20 overnight at 4° C. […]

[3] = EDTA, EGTA 1 mM (2-0.25 mM in dose response)

Row | Compound | schizont maturation / development on giemsa stained thin smears (P. falciparum schizonts) | Protease inhibitor Clusters of Merozoites (PCM) on giemsa stained slides (P. falciparum schizonts) | formation of trapped PfAMA-1 52 and PfAMA-1 48+44 [2] | also measured
1 | c1cnc2c(c1)ccc1cccnc12 [1,10-phenanthroline] | interrupted schizont maturation | – | – | –
2 | CC(C)C[C@H](NC(=O)[C@H]1O[C@@H]1C(=O)O)C(=O)NCCCCN=C(N)N [E64] | – | PCM's were observed | – | –
3 | O=C(O)CN(CCN(CC(=O)O)CC(=O)O)CC(=O)O [EDTA] | – | – | inhibited the formation of only PfAMA-148+44 | inhibition of RBC invasion [1]: ~40%; schizont rupture (P. falciparum schizonts): did not affect schizont rupture; accumulation of PfAMA-1 66 [2, 3]: caused accumulation of PfAMA-166
4 | O=C(O)CN(CCOCCOCCN(CC(=O)O)CC(=O)O)CC(=O)O [EGTA] | – | – | inhibited the formation of only PfAMA-148+44 | inhibition of RBC invasion [1]: ~20%; schizont rupture (P. falciparum schizonts; 1 mM): did not affect schizont rupture; accumulation of PfAMA-1 66 [2, 3]: caused accumulation of PfAMA-166
5 | O=S(=O)(F)Cc1ccccc1 [PMSF] | interrupted schizont maturation | – | – | –
6 | Cc1ccc(S(=O)(=O)N[C@@H](CCCCN)C(=O)CCl)cc1 [TLCK] | interrupted schizont maturation | – | – | –
7 | Cc1ccc(S(=O)(=O)N[C@@H](Cc2ccccc2)C(=O)CCl)cc1 [TPCK] | interrupted schizont maturation | – | – | –
8 | CC(C)C[C@H](NC(=O)[C@@H](NC(=O)N[C@@H](Cc1ccccc1)C(=O)O)[C@@H]1CCN=C(N)N1)C(=O)N[C@H](C=O)Cc1ccccc1 [chymostatin] | did not block schizont development | PCM's were observed | formation of both PfAMA-152 and PfAMA-148+44 were inhibited | inhibition at 100 µM ([1]; Plasmodium falciparum, read-out: inhibition of merozoite invasion): > 90%; accumulation of PfAMA-1 66 ([2]; chymostatin 100-12.5 μM): found to accumulate
9 | CC(=O)N[C@@H](CC(C)C)C(=O)N[C@@H](CC(C)C)C(=O)N[C@H](C=O)CCCNC(=N)N [leupeptin] | – | PCM's were observed | – | –
